Columns and labels:
[1] = test system: SRS-A (Slow Reacting Substance of Anaphylaxis) synthesis in rat polymorpholeukocyte (PMN); assay: Inhibitory Activity of SRS-A synthesis in rat polymorpholeukocyte (PMN) using the calcium ionophore A23187 (i-LTC4 by radioimmunoassay); format: cell-based, rat (male Sprague-Dawley); conditions: Rattus norvegicus, 0.25 h, 10 μM A23187, 15 min, 37° C.
Method: Test I: Inhibitory Activity of SRS-A (Slow Reacting Substance of Anaphylaxis) synthesis in rat polymorpholeukocyte (PMN) of using the calcium ionophore Male Sprague-Dawley rats weighing 250-300 g were anesthetized with ether and each was injected intraperitoneally with 20 ml of 0.1% clycogen (from Oyster). After 20 hours the rats were sacrificed and PMN were recovered in rinse of the peritoneal cavity with 10 ml Dulbeccos PBS (components in g/L: CaCl2 0.1, KH2 PO4 0.2, MgCl2.6H2 O 0.1, NaCl 8.0, Na2 HPO4.7H2 O 2.16; pH7.4). These rinses were filtered through nylon wool filter and centrifuged for 5 min at 1000 xg. The pellet was suspended in Dulbeccos PBS and centrifuged for 5 min at 1000 xg. The pellet was resuspended in Dulbeccos PBS and adjusted the cell concentration to 10^7 cells/ml with Dulbeccos PBS. Samples were dissolved in ethanol and dispersed in Dulbeccos PBS to give a concentration of 10^-10 -10^-5 M Antibiotic A23187; calcium ionophor ([…] Diagnostics) (hereinafter referred to A23187) in DMSO(10mM) was diluted with Dulbeccos PBS to give the concentration of 1 mM. Aliquots of the cell suspension (1×10^7 cells/ml, 0.98 ml) were equilibrated for 30 min at 37° C. Solution of sample(10 μl) was added and incubated for 15 min at 37° C. before the addition of 10 μl of A23187 solution. Thus the final incubation volume of 1 ml contained approximately 1×10^7 cells, 10^-10 -10^-5 M samples and 10 μM A23187. Incubation with A23187 were continued for 15 min at 37° C. The reactions were terminated by setting the assay tubes in ice bath to chill as rapidly as possible to 4° C. The test tubes were centrifuged at 1500 xg for 5 min at 4° C. and decanted the supernatants into the tubes and kept cold prior to assaying. The concentration of i-LTC4 in the cell-free supernatants from the incubations were determined by specific radioimmunoassay. The mean values of i-LTC4 (these incubations were carried out in duplicate) of each sample were calculated and the effect of samples on the synthesis of the leukotrienes was presented as a percentage of the value in the absence of samples.

[2] = test system: Intimal Thickening of Rabbit Carotid Artery; assay: Antiatherosclerotic activity: cuff-induced intimal thickening of rabbit carotid artery; format: in vivo, rabbit (male Japanese white); conditions: i.m.; for Intimal thickening index: once a day, 3 weeks, mean ± SE (n = 8)
Text: Induction of Intimal Thickening of Rabbit Carotid Artery
Forty male Japanese white rabbits weighing about 2 kg were used for the test of the compound of Example 40. They were divided into 5 groups of 8 animals: one served as control, and the other 4 as drug dose groups. The rabbits were anesthetized with care not to injure the surrounding tissues. A polyetherylene cuff (1.5 cm long, 2.15 mm inner diameter, 3.25 mm outer diameter) was placed around the artery. The rabbits were maintained for 3 weeks on standard laboratory diet and water ad libitum. The compound of Example 40 and the vehicle (0.5%, w/v methyl cellulose in saline) were given intramuscularly once a day starting from the day of cuff-placement. At the end of the 3rd week, the rabbits were heparinized (500, i.v.), and the artery was removed, washed free of blood with saline, fixed by immersion in 10% formalin and divided into 8 cross-segments about 2 mm long. The segments were embedded in paraffin and cut into transverse sections. These sections were stained with orecin. About 70 transverse sections were prepared form each artery and used for the quantitation of the initimal thickening.
Quantitation of Intimal Thickening (Intimal Thickening Index)
The arterial sections were observed by light microscopy and the intimal thickening was scored as follows. 0=no thickening; 1=slight hyperplasia in the subendothelial space with intima media ratio of about 1/10; 2=several layers of cells in the subendothelial space with intima media ratio of about 1/5, or parts of the subendothelial space with more hyperplasia; 3=sever hyperplasia throughout the subendothelial space with intima media ratio of more than 1/3.

[3] = test system: CDE-induced pancreatitis in mice; assay: Effect on experimental pancreatitis in mice (CDE diet-induced, lethal); format: in vivo, mouse (female ICR); conditions: for % survival: orally two times a day for 4 days, N = 20, control 15
Text: Test III: Effect on experimental pancreatitis in mice
The effect of 5-lipoxygenase inhibitor, the compound of Example 40 was studied in a lethal form of pancreatitis induced by feeding mice an ehionine-supplemented choline-deficient diet (CDE diet).
Female ICR mice, aged 3 wk were used in this study. All mice were fed a regular laboratory diet before the experiments. The CDE diet was then substituted for 2 days, and after this period replaced by the regular diet for an additional 6 days.
The compound of Example 40 was administered orally two times a day for 4 days after the beginning of the CDE diet.

[4] = 0.1 mg/kg, P < 0.01 compared with vehicle control
[5] = 10 mg/kg, P < 0.01 compared with vehicle control

CCCCC1(CCCC)CCc2c(OCc3ccc4ccccc4n3)cccc2C1O (single isomer, unassigned; (+)) [Example 40, (+)-2,2-dibutyl-5-(2-quinolylmethoxy)-1,2,3,4-tetrahydro-1-naphthol]
IC50 [1]: 6.5 nM | Intimal thickening index, percentage versus the mean value of vehicle control ([2]; 0.01 mg/kg): 90.1% | Intimal thickening index ([2]; 0.01 mg/kg): 1.27 ± 0.17 | Intimal thickening index [2, 4]: 0.71 ± 0.16 | Intimal thickening index, percentage versus the mean value of vehicle control [2, 4]: 50.4% | Intimal thickening index, percentage versus the mean value of vehicle control ([2]; 1.0 mg/kg): 65.9% | Intimal thickening index ([2]; 1.0 mg/kg): 0.93 ± 0.31 | inhibition of cuff-induced intimal thickening (in words) ([2]; 0.01-10 mg/kg): dose-dependently inhibited cuff-induced intimal thickening | inhibitory activity on intimal thickening (in words) ([2]; 10 mg/kg): exerted significant inhibitory activity | Intimal thickening index [2, 5]: 0.60±0.21 | Intimal thickening index, percentage versus the mean value of vehicle control [2, 5]: 42.5% | % survival ([3]; 10 mg/kg): 10% | % survival ([3]; 32 mg/kg): 35% | % survival ([3]; 100 mg/kg): 85% | prevention of CDE-induced pancreatitis (in words) ([3]; orally, 10-100 mg/kg): prevented the CDE-induced pancreatitis in a dose-dependent manner

Source: patent US5045548A, “Quinolyl methoxy compounds and their use as antiasthmatic agents” (Fujisawa Pharmaceutical Company, Ltd., priority 1987, dated 1991)
